Measured values from paper PMC7182039 (Journal of medicinal chemistry, 2020).

Experiments:
[1] = In vitro metabolic stability in mouse liver microsomes; assay type: in vitro ADME; settings: for m CLint: 37 °C, 0.4 mg/mL protein, NADPH
[2] = Kinetic solubility by nephelometry; assay type: physicochemical; settings: kinetic solubility, 1% DMSO, 30 min; for sol2.0: 0.01 M HCl (approx. pH 2.0); for sol6.5: pH 6.5 phosphate buffer
[3] = In vitro metabolic stability in human liver microsomes; assay type: in vitro ADME; settings: for h CLint: 37 °C, 0.4 mg/mL protein, NADPH

Row | Compound | m CLint [1] | sol2.0 [2] | sol6.5 [2] | h CLint [3] | conversion to 2 in mouse liver microsomes [1] | conversion to 2 in human liver microsomes [3]
1 | O=C(O)c1cccc([C@H]2CC[C@]3(CC2)OOC2(O3)C3CC4CC(C3)CC2C4)c1 (stereo partly drawn) [Compound 4] | 30 μL/(min mg) protein | <1.6/<1.6 μg/mL | <1.6/<1.6 μg/mL | 12 μL/(min mg) protein |  | 
2 | O=C(O)c1cc([C@H]2CC[C@]3(CC2)OOC2(O3)C3CC4CC(C3)CC2C4)ccc1O (stereo partly drawn) [Compound 5, 5-(Dispiro[adamantane-2,3′ -[1,2,4]trioxolane-5′,1″-cyclohexan]-4″-yl)-2-hydroxybenzoic acid] | 20 μL/(min mg) protein |  |  | 108 μL/(min mg) protein |  | 
3 | O=C(O)COc1ccc([C@H]2CC[C@]3(CC2)OOC2(O3)C3CC4CC(C3)CC2C4)cc1C(=O)O (stereo partly drawn) [Compound 6, cis-Adamantane-2-spiro-3′−8′-[3-carboxy-4-(carboxymethoxy)-phenyl]-1′,2′,4′-trioxaspiro[4.5]decane] | 8 μL/(min mg) protein |  |  | < 7 μL/(min mg) protein |  | 
4 | O=C(O)COc1c(Cl)cc([C@H]2CC[C@]3(CC2)OOC2(O3)C3CC4CC(C3)CC2C4)cc1Cl (stereo partly drawn) [Compound 8, cis-Adamantane-2-spiro-3′ −8′-[3,5-dichloro-4-(carboxymethoxy)phenyl]-1′,2′,4′-trioxaspiro[4.5]decan] |  |  | 3.1 to 6.3 µg/mL |  |  | 
5 | O=C(O)CCCOc1ccc([C@H]2CC[C@]3(CC2)OOC2(O3)C3CC4CC(C3)CC2C4)cc1 (stereo partly drawn) [Compound 9, cis-Adamantane-2-spiro-3′−8′-[4-(carboxypropoxy)-phenyl]-1′,2′,4′-trioxaspiro[4.5]decane] | 8 μL/(min mg) protein |  |  | < 7 μL/(min mg) protein |  | 
6 | O=C(O)CCCCOc1ccc([C@H]2CC[C@]3(CC2)OOC2(O3)C3CC4CC(C3)CC2C4)cc1 (stereo partly drawn) [Compound 10, cis-Adamantane-2-spiro-3′−8′-[4-(carboxybutoxy)phenyl]-1′,2′,4′-trioxaspiro[4.5]decan] | 13 μL/(min mg) protein | <1.6/<1.6 μg/mL | <1.6/<1.6 μg/mL | < 7 μL/(min mg) protein |  | 
7 | CC(C)(Oc1ccc([C@H]2CC[C@]3(CC2)OOC2(O3)C3CC4CC(C3)CC2C4)cc1)C(=O)O (stereo partly drawn) [Compound 11] | <7/7 μL/(min mg) protein |  | 3.1 to 6.3 µg/mL | <7/7 μL/(min mg) protein |  | 
8 | CCOC(=O)COc1ccc([C@H]2CC[C@]3(CC2)OOC2(O3)C3CC4CC(C3)CC2C4)cc1 (stereo partly drawn) [Compound 12] |  |  |  |  | rapidly converted to 2 | rapidly converted to 2
9 | CS(=O)(=O)NC(=O)COc1ccc([C@H]2CC[C@]3(CC2)OOC2(O3)C3CC4CC(C3)CC2C4)cc1 (stereo partly drawn) [Compound 13, cis-Adamantane-2-spiro-3′−8′-[4-[2-[methylsulfonamino]-2-oxoethoxy]phenyl]-1′,2′,4′-trioxaspiro[4.5]decane] | 12 μL/(min mg) protein |  | 6.3 to 12.5 µg/mL | < 7 μL/(min mg) protein |  | 
10 | O=C([O-])C1CCN(CCOc2ccc([C@H]3CC[C@]4(CC3)OOC3(O4)C4CC5CC(C4)CC3C5)cc2)CC1.[Na+] (stereo partly drawn) [Compound 15] | 9 μL/(min mg) protein | 3.1 to 6.3 µg/mL | < 1.6 µg/mL | < 7 μL/(min mg) protein |  | 
11 | CS(=O)(=O)O.O=C(O)C1CN(Cc2ccc([C@H]3CC[C@]4(CC3)OOC3(O4)C4CC5CC(C4)CC3C5)cc2)C1 (stereo partly drawn) [Compound 18, cis-Adamantane-2-spiro-3′−8′-[4-((3-(carbonyi)azetidin-1-yl)-methyi)phenyi]-1′,2′,4′-trioxaspiro[4.5]decane mesyiate] | 10 μL/(min mg) protein | 6.3 to 12.5 µg/mL | < 1.6 µg/mL | 7 μL/(min mg) protein |  | 
12 | O=C(O)COc1ccc([C@H]2CC[C@]3(CC2)OOC2(O3)C3CC4CC2CC(C3)C4(F)F)cc1 (stereo partly drawn) [Compound 19, cis-6,6-Difluoroadamantane-2-spiro-3′−8′-[4-(carboxymethoxy)-phenyl]-1′,2′,4′ -trioxaspiro[4.5]decane] | 130 μL/(min mg) protein |  | 12.5 to 25 µg/mL | 23 μL/(min mg) protein |  | 
13 | O=C(O)COc1ccc([C@H]2CC[C@]3(CC2)OOC2(O3)C3CC4CC2CC(C3)C4=O)cc1 (stereo partly drawn) [Compound 20, cis-6-Oxoadamantane-2-spiro-3′−8′-[4-(carboxymethoxy)-phenyl]-1′,2′,4′-trioxaspiro[4.5]decane] |  |  | 50 to 100 µg/mL |  |  | 
14 | O=C(O)COc1ccc([C@H]2CC[C@]3(CC2)OOC2(O3)C3CC4CC2CC(C3)C4O)cc1 (stereo partly drawn) [Compound 21, cis-6-Hydroxyadamantane-2-spiro-3′−8′-[4-(carboxymethoxy)-phenyl]-1′,2′,4′-trioxaspiro[4.5]decane] | <7/<7 μL/(min mg) protein |  | 25 to 50 µg/mL | <7/<7 μL/(min mg) protein |  | 
15 | CC(=O)NC1C2CC3CC1CC(C2)C31OO[C@]2(CC[C@@H](c3ccc(OCC(=O)O)cc3)CC2)O1 (stereo partly drawn) [Compound 22, cis-6-Acetamidoadamantane-2-spiro-3′−8′-[4-(carboxymethoxy)phenyl]-1′,2′,4′-trioxaspiro[4.5]decane] | < 7 μL/(min mg) protein | 3.1 to 6.3 µg/mL | 12.5 to 25 µg/mL | 10 μL/(min mg) protein |  | 
16 | CS(=O)(=O)O.NC1C2CC3CC1CC(C2)C31OO[C@]2(CC[C@@H](c3ccc(OCC(=O)O)cc3)CC2)O1 (stereo partly drawn) [Compound 23, cis-6-Aminoadamantane-2-spiro-3′−8′-[4-(carboxymethoxy)-phenyl]-1′,2′,4′-trioxaspiro[4.5]decane mesylate] | 8 μL/(min mg) protein | 6.3 to 12.5 µg/mL | < 1.6 µg/mL | 13 μL/(min mg) protein |  | 
17 | CS(=O)(=O)O.O=C(O)COc1ccc([C@H]2CC[C@]3(CC2)OOC2(O3)C3CC4CC2CC(C3)N4)cc1 (stereo partly drawn) [Compound 24, cis-6-Azaadamantane-2-spiro-3′−8 ′-[4-(carboxymethoxy)-phenyl]-1′,2′,4′-trioxaspiro[4.5]decane mesylate] | 27 μL/(min mg) protein | 3.1 to 6.3 µg/mL | < 1.6 µg/mL | 35 μL/(min mg) protein |  | 
18 | CS(=O)(=O)O.CS(=O)(=O)O.O=C(O)CNCc1ccc([C@H]2CC[C@]3(CC2)OOC2(O3)C3CC4CC2CC(C3)N4)cc1 (stereo partly drawn) [Compound 25, cis-6-Azaadamantane-2-spiro-3′−8′-[4-[[(carboxymethyl)-amino]methyl]phenyl]-1′,2′,4′-trioxaspiro[4.5]decane mesylate] | <7/<7 μL/(min mg) protein | > 100 µg/mL | 50 to 100 µg/mL | <7/<7 μL/(min mg) protein |  | 
